Entries after “also recorded” stand apart in the source; their conditions may differ. Oligonucleotides are written 5' to 3', each unit as a sugar letter and its base; * is a phosphorothioate linkage, no mark a phosphodiester; rarer units and linkages stand in square brackets, end groups in braces. Plain capitals give the bases only. [aminoLNA-N] = amino locked nucleic acid nucleoside (N: the base); l = locked nucleic acid (LNA); d = 2'-deoxy (DNA)
Tests used:
[1] = system: mature human miR-208a (22 nucleotide RNA complement); assay: Duplex melting temperature (Tm) of anti-208a oligonucleotides annealed to complementary RNA; type: binding; details: for ΔTm, DNA: difference to fully DNA phosphodiester 10931; for Tm: RNA complement
Experimental: The melting temperature (Tm) of modified 16 nucleotide phosphodiester strands were determined and compared to the Tm of identical 16 nucleotide sequences having natural phosphodiester DNA nucleotides. Specifically, the relative aminoCBBN melting temperature (Tm) compared to the 2′-deoxynucleoside or oxoCBBN nucleoside with the same nucleobase was determined on a per incorporation basis by determining the difference between the melting temperature of the amino-modified 16 nucleotide length phosphodiester strand and that of the identical 16 nucleotide sequence utilizing either the 2′-deoxynucleoside or oxoCBBN phosphodiester DNA nucleotide. Tm differences of substitutions were compared only when they were placed in the same position of the sequence.
For example, the modified anti-208a oligonucleotides were annealed to the complementary sequence, twenty-two nucleotides in length, comprised of RNA nucleosides and a phosphate backbone. The complementary sequence was identical to the endogenous mature miRNA. Thermal denaturation temperatures (Tm) were measured as a maximum of the first derivative plot of melting curvex (A260 vs. Temp). The duplexes were constituted at 1 μM in a 0.9% NaCl buffer. Temperature was ramped from 25° C. to 95° C. at 1° C./min and OD's at 260 nm were read once per 30 seconds. Tm values are averages of at least two measurements.
Duplex melting temperatures for various modifications of a 16 nucleotide sequence, complementary to a nucleotide sequence of mature human miR-208a were measured using a Varian Cary 1E UV-Vis Spectrophotometer. Anti-miRNA 208a oligonucleotide sequences tested included a fully DNA phosphodiester (compound M-10931 (SEQ ID NO:9)), four DNA phosphodiester oligonucleotides with 1, 2 or 3 aminoCBBN thymidine residues in place of dT residues (compounds M-11915 (SEQ ID NO: 1), M-11916 (SEQ ID NO:2), M-11917 (SEQ ID NO:3), and M-11918 (SEQ ID NO:4)), mixed 9 LNA/7 DNA phosphorothioate oligonucleotide (compound M-10101 (SEQ ID NO:10)), and 2 mixed LNA/DNA/aminoCBBN phosphorothioate oligonucleotides where LNA thymidines of the parent compound, compound M-10101 (SEQ ID NO: 10), were replaced with either 1 or 2 aminoCBBN residues (compounds M-11920 (SEQ ID NO:6) and M-11919 (SEQ ID NO:5)). Duplexes were constituted at 1 μM in 0.9% NaCl. Temperature was ramped from 25° C. to 95° C. at 1° C./min and OD's at 260 nm were read once per 30 seconds.

RNA Complement = details: Table 3, cited from earlier work; for Tm: DNA 9mer, phosphate backbone, RNA complement, literature values
miR-208a = assay: Dual-luciferase reporter assay in HeLa cells stably expressing miR-208a; type: cell-based, human; details: FIG. 4; renilla/firefly luminescence, 24 hours after transfection, in words
Experimental: A HeLa cell line stably expressing miR-208a was generated. Specifically, a miRNA expression vector (Cell BioLabs, Inc.) expressing miR-208a was transfected into HeLa cells. Cells were then selected using a puromycin selection screen and clones which had detectable miR-208a expression as measured by qPCR were isolated (Ct value=˜30).
The cells were plated in a black-walled 96 well plate with 10,000 cells per well. After twenty-four hours following plating, the cells were transfected with a dual-luciferase plasmid containing the miR-208a binding site in the 3′ UTR of the renilla gene and various miR-208a inhibitors (compounds M-11919 (SEQ ID NO:5), M-11920 (SEQ ID NO:6), and M-10101 (SEQ ID NO:10)). Compound M-10591 was a non-targeting control. The cells were incubated for 24 hours at 37° C. and then both firefly (as a transfection normalization) and renilla levels were measured by luminescence using the Dual-Luciferase Reporter Assay System (Promega). Data was normalized to cells treated with only the miR-208a dual luciferase plasmid (psi check 208a).

[2] = Table 1, phosphate backbone, duplex 1 μM in 0.9% NaCl
[3] = Table 3, PS backbone 10101-like
[4] = Table 3, PS backbone, versus parent 10101

bC.bT.bT.bT.bT.bT.dG.bC.bT.bC. dG.bT.bC.bT.bT.dA [Compound M-10924]
ΔTm, DNA ([1]; Table 1): 36.7 °C | ΔTm/mod ([1]; Table 1, per modification, versus DNA): 2.8 °C/modification | Tm [1, 2]: 89.8 °C

dG; aIT; dG; dA; aIT; dA; aIT; dG; dC (DNA dG[aminoLNA-T]dGdA[aminoLNA-T]dA[aminoLNA-T]dGdC) [DNA_9mer_PO_3aminoLNA-T, literature DNA 9mer phosphodiester with three aminoLNA-T]
Tm (RNA Complement): 47 °C | ΔTm, parent (RNA Complement; aminoLNA 9mer versus LNA 9mer): −1 °C | ΔTm/mod (RNA Complement; aminoLNA 9mer versus LNA 9mer): −1 °C/modification

lCs.dTs.dTs.dTs.lTs.lTs.dGs.lCs. dTs.lCs.lGs.dTs.lCs.dTs.abTs.lA [Compound M-11920]
miR-208a inhibition activity (miR-208a): slightly less activity compared to the other two inhibitors | Tm [1, 3]: 85.125 °C | ΔTm, parent [1, 4]: −1.575 °C | ΔTm/mod [1, 4]: −0.7875 °C/modification | Affinity for the miR-208a RNA (Tm data, in words) ([1]; comparison of M-11920 with M-11919): less affinity for the miR-208a RNA than the M-11919

lCs.dTs.dTs.dTs.abTs.abTs.dGs. lCs.dTs.lCs.lGs.dTs.lCs.dTs.lTs.lA [Compound M-11919]
miR-208a inhibition activity (miR-208a): comparable activity as compound M-10101; also recorded: retains all activity of the optimized M-10101 | Tm [1, 3]: 80.04 °C | ΔTm, parent [1, 4]: −6.66 °C | ΔTm/mod [1, 4]: −6.66 °C/modification

dC; dT; dT; dT; dT; dT; dG; dC; dT; dC; dG; dT; dC; dT; dT; dA (DNA CTTTTTGCTCGTCTTA; unmodified DNA) [Compound M-10931, reference compound]
ΔTm, DNA ([1]; Table 1): 0 °C | Tm [1, 2]: 53.1 °C

dG; IT; dG; dA; IT; dA; IT; dG; dC (DNA dGlTdGdAlTdAlTdGdC) [DNA_9mer_PO_3LNA-T, literature DNA 9mer phosphodiester with three LNA-T]
Tm (RNA Complement): 50 °C

ICs; dTs; dTs; dTs; ITs; ITs; dGs; ICs; dTs; ICs; IGs; dTs; ICs; dTs; ITs; IA [Compound M-10101, reference compound]
Tm [1, 3]: 86.7 °C

Source: US10030042B2, “Synthesis of bicyclic nucleosides” (MiRagen Therapeutics, Inc., priority 2014, dated 2018)
